Experimental data reported in ChEMBL document CHEMBL5032525, “In vitro, ex vivo and in vivo short-term screening of DHEA nitrate derivatives activity over Trypanosoma cruzi Ninoa and TH strains from Oaxaca State, México” (Bioorg Med Chem, 2021).

How the values were obtained:
Trypanosoma cruzi [1] = test: microbe, parasite or virus in culture; assay type: functional, organism-based; settings: MHOM/MX/1994/Ninoa, 48 h
Description: Trypanocidal activity against Trypanosoma cruzi MHOM/MX/1994/Ninoa assessed as inhibition of parasite growth measured after 48 hrs by MTT assay

in vitro [2] = settings: mouse
Description: Selectivity index, ratio of CC50 for mouse J774.2 cells to IC50 for Trypanosoma cruzi MHOM/MX/1994/Ninoa

in vitro [3] = settings: mouse; remark: listed apart in the source
Description: Selectivity index, ratio of CC50 for mouse J774.2 cells to IC50 for Trypanosoma cruzi ITRI/MX/2018/TH

Trypanosoma cruzi [4] = test: microbe, parasite or virus in culture; assay type: functional, organism-based; settings: ITRI/MX/2018/TH, 48 h
Description: Trypanocidal activity against Trypanosoma cruzi ITRI/MX/2018/TH assessed as inhibition of parasite growth measured after 48 hrs by MTT assay

[5] = Cytotoxicity against mouse J774.2 cells assessed as reduction in cell viability measured after 48 hrs by resazurin dye based assay
Trypanosoma cruzi [6] = test: microbe, parasite or virus in culture; assay type: functional, organism-based; settings: MHOM/MX/1994/Ninoa, 24 h
Description: Antitrypanosomal activity against Trypanosoma cruzi MHOM/MX/1994/Ninoa infected in animal assessed as reduction in viable parasite in blood measured after 24 hrs by neubauer chamber assay

| SMILES | IC50 (Trypanosoma cruzi [1]) | selectivity ratio (in vitro [2]) | selectivity ratio (in vitro [3]) | IC50 (Trypanosoma cruzi [4]) | CC50 at 48 h ([5]; j774.2) | IC50 (Trypanosoma cruzi [6]) | selectivity ratio (in vitro [2]; J774.2 cells) | selectivity ratio (in vitro [3]; J774.2 cells) | CC50 at 48 h ([5]; J774.2 cells) |
| --- | --- | --- | --- | --- | --- | --- | --- | --- | --- |
| C[C@]12CC[C@H]3[C@@H](CC=C4C[C@@H](O)CC[C@@]43C)[C@@H]1CC[C@@H]2O [ANDROSTENEDIOL] | 2.23 µM | 125 | 7.5 | 37.1 µM | 278 µM | > 300 µM |  |  |  |
| O=C(Cn1ccnc1[N+](=O)[O-])NCc1ccccc1 [BENZNIDAZOLE] |  |  |  | 39.1 µM |  |  |  |  |  |
| C[C@]12CC[C@H]3[C@@H](CC=C4C[C@@H](O)CC[C@@]43CO)[C@@H]1CCC2=O | 36.2 µM |  |  | 476 µM |  | > 300 µM | 2.08 | 0.15 | 75.4 µM |
| C[C@]12CC[C@H]3[C@@H](CC=C4C[C@@H](O[N+](=O)[O-])CC[C@@]43CO[N+](=O)[O-])[C@@H]1CCC2=O | 48.3 µM |  |  | 430 µM |  | 295 µM | 2.68 | 0.3 | 130 µM |
| C[C@]12CC[C@H]3[C@@H](CC=C4C[C@@H](O[N+](=O)[O-])CC[C@@]43C)[C@@H]1CC[C@@H]2O[N+](=O)[O-] | 347 µM |  |  | 77 µM |  | > 300 µM | 0.44 | 1.89 | 151 µM |
| C#C[C@]1(O[N+](=O)[O-])CC[C@H]2[C@@H]3CC=C4C[C@@H](O[N+](=O)[O-])CC[C@]4(CO[N+](=O)[O-])[C@H]3CC[C@@]21C | 2.12 µM |  |  | 321 µM |  | > 300 µM | 11 | 0.07 | 22.3 µM |
| C[C@]12CC[C@H](O)CC1=CC[C@@H]1[C@@H]2CC[C@]2(C)C(=O)CC[C@@H]12 [PRASTERONE] | 62 µM |  |  | 13.8 µM |  | > 300 µM | 3.19 | 14.3 | 198 µM |
| CC1CS(=O)(=O)CCN1/N=C/c1ccc([N+](=O)[O-])o1 (stereo unspecified) [NIFURTIMOX] | 7.09 µM |  |  | 19.3 µM |  |  |  |  |  |
| C#C[C@]1(O)CC[C@H]2[C@@H]3CC=C4C[C@@H](O[N+](=O)[O-])CC[C@]4(CO[N+](=O)[O-])[C@H]3CC[C@@]21C | 2.8 µM |  |  | 321 µM |  | > 300 µM | 14.2 | 0.13 | 39.8 µM |
| C[C@]12CC[C@H](O[N+](=O)[O-])CC1=CC[C@@H]1[C@@H]2CC[C@]2(C)C(=O)CC[C@@H]12 | 33.2 µM |  |  | 0.2 µM |  | > 300 µM | 0.01 | 1 | 0.2 µM |
